Measurements from patent publication US20040171544A1, “Trefoil domain-containing polypeptides and uses thereof” (priority 2001, published 2004).
Where no end group is shown, it is not given here.

What was measured:
IEC-6 cells = test: in vitro IEC-6 wounding/cell migration assay; assay type: cell-based; details: for relative activity (wound repair, IEC-6 cells across the wound border): 0.1-1.0 mg/ml dimer, 19 hours, serum-deprived media with or without hCGP 2 mg/ml
Method: Biological activity of recombinant trefoil peptide fragments was measured using an in vitro wound/migration assay as described by Dignass et al. (J. Clin. Invest. 94:376-383 (1994)). Briefly, primary intestinal epithelial, IEC-6 cells (at passage 17) were grown in sterile Dulbecco's Modified Eagle Medium (DMEM) supplemented with 5% FCS (v/v), 5 μg/μl insulin, and 10 mM penicillin/streptomycin/L-glutamine (PSG). Cells were grown to confluence in a humidified chamber at 37° C. and 5% CO2.
Prior to performing biopotency assays, the media was removed, washed 2× with 0.1% FCS/DMEM and serum-starved overnight in 0.1% FCS/DMEM at 37° C. and 5% CO2. Two simulated wounds per well were made by scoring the cells with a razor blade. The cells were then washed once with 0.1%FCS/DMEM. Samples of hITF15-73 and its fragments and isoforms were produced in Pichia pastoris and purified as described above. The TDCP mixture was then added to separate plates at a concentration of 100 μg per milliliter of 0.1% FCS/DMEM per fragment. A positive control using the known mitogen, transforming growth factor-β (TGF-β), was included at 20 ng/mL media and a negative control of just 0.1% FCS/DMEM were incorporated for later analysis. Cells were incubated for 24 hours at 37° C. At 24 hours post incubation, cells were washed with ice-cold PBS and fixed in cold MeOH. Each plate was then assayed for motility by counting the number of cells crossing the wound edge.
Biological activity was tested using the in vitro IEC-6 wounding/cell migration assay describe above with the following modifications. IEC-6 cells were cultured to confluence in 24-well multiwell plates and were wounded once with a pipette to yield a 4-5 mm×1 cm wound in each well. Cells were washed and maintained in serum-deprived media, with or without human colonic glycoprotein (hCGP; 2 mg/ml), in the presence of 0.1-1.0 mg/ml of one of the three recombinant hITF dimers identified above for 19 hours. Bovine serum albumin (0.1-1.0 mg/ml) was added instead of an hITF dimer. Wound repair was determined by counting the number of IEC-6 cells across the wound border using a 100× photomicrograph (inverted Nikon Diaphor TMS, Nikon N6006 camera).

[1] = isoelectric point (pI) of ITF fragments; assay type: physicochemical
Excerpt: We have observed that production of trefoil peptides in Pichia pastoris leads to post-translational events which include proteolytic cleavage and dipeptide addition. […] Our studies have shown that longer fermentation times results in increased hITF21-72 yields. We also observed that the optimal yield of the ITF21-72 and ITF21-73 occurs at a pH of ˜5; whereas the optimal yield of the […] and […] occurs at pH 6.0-6.5. As the pI of ITF15-73 and ITF21-72 is 5.1 and 6.9 respectively, separation of the two products can be achieved by ion-exchange chromatography.

[2] = stated as well known; cited from earlier work

hITF15-73/EA-hITF15-73 heterodimer: dimer of hITF15-73 and EA-hITF15-73, 13347 Da (EEYVGLSANQCAVPAKDRVDCGYPHVTPKECNNRGCCFDSRIPGVPWCFKPLQEAECTF; cysteine pairing not given here; also: heterodimer of hITF15-73 and EA-hITF15-73, one chain has N-terminal Glu-Ala extension; UniProt Q07654 22-80, looked up, fragment)
relative activity (wound repair, IEC-6 cells across the wound border) (IEC-6 cells): 95.6%

EA-hITF15-73 homodimer: dimer of EA-hITF15-73, 13547 Da (EAEEYVGLSANQCAVPAKDRVDCGYPHVTPKECNNRGCCFDSRIPGVPWCFKPLQEAECTF; also: homodimer; UniProt Q07654 22-80, looked up, fragment)
relative activity (wound repair, IEC-6 cells across the wound border) (IEC-6 cells): 85.3%

hITF15-73 homodimer: recombinant hITF15-73 dimer, 13146 Da (EEYVGLSANQCAVPAKDRVDCGYPHVTPKECNNRGCCFDSRIPGVPWCFKPLQEAECTF; cysteine pairing not given here; also: homodimer; UniProt Q07654 22-80, looked up, fragment)
relative activity (wound repair, IEC-6 cells across the wound border) (IEC-6 cells): 100%

hITF15-73: recombinant trefoil peptide fragment, amino acid residues 15-73 of human intestinal trefoil factor, produced in Pichia pastoris (EEYVGLSANQCAVPAKDRVDCGYPHVTPKECNNRGCCFDSRIPGVPWCFKPLQEAECTF; UniProt Q07654 22-80, looked up, fragment)
increase in IEC-6 cells migrating over the wound edge, compared to BSA control (IEC-6 cells; 1 mg/ml, 19 hour incubation, versus 1 mg/ml BSA (FIG. 12)): ~3 fold
pI [1]: 5.1

B1: hITF: human intestinal trefoil factor (hITF; also known as TFF3) (protein, listed as Homo sapiens)
chain: MLGLVLALLSSSSAEEYVGLSANQCAVPAKDRVDCGYPHVTPKECNNRGCCFDSRIPGVPWCFKPLQEAECTF
stability at stomach pH [2]: stable
